This note sets out measurements from PubChem BioAssay AID1963868 (Molecular Pharmacology Branch, DTP, NCI, 2024).

One may read the pIC50 as the negative decadic logarithm of the IC50, by convention in mol/L. For orientation: viability, T/C means the result in the treated group divided by that in the control group, in per cent.

pIC50: −log10 of the molar value. Values joined by “and” are separate entries in the source; they are usually repeats but may differ in a detail not shown here. Equal values may be shown once.

The test system of the experiment is KRAS PDC tumor spheroids (HUVEC+MSC), viability. Description: Anticancer human tumor 254851-301-R-J1-PDC patient-derived colon carcinoma cell line growth inhibition [KRAS2]. Particulars: for viability, T/C: stronger effect = lower value. The method, boiled down:
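Combination screen of spheroid viability in tumor-cell co-cultures with endothelial (HUVEC) and mesenchymal stem cell stroma. Each agent was tested in half-log dilutions, topping at clinical Cmax or at 10 microM without a known Cmax.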

[1] abbreviates: curve of first compound, second compound 0.1 µM.
Where [2] appears, read: curve of first compound, second compound 0.316 µM.
[3] abbreviates: curve of first compound, second compound 1 µM.
Where [4] appears, read: curve of first compound, second compound 3.16 µM.
The mark [5] stands for this setting: curve of first compound, second compound 10 µM.
[6] abbreviates: second compound 0.1 µM, first compound 0.01 µM.
The mark [7] stands for this setting: second compound 0.1 µM, first compound 0.0316 µM.
The mark [8] stands for this setting: second compound 0.316 µM, first compound 0.01 µM.
Where [9] appears, read: second compound 0.316 µM, first compound 0.0316 µM.
Where [10] appears, read: second compound 1 µM, first compound 0.01 µM.
The mark [11] stands for this setting: second compound 1 µM, first compound 0.0316 µM.
The mark [12] stands for this setting: second compound 3.16 µM, first compound 0.01 µM.
[13] abbreviates: second compound 3.16 µM, first compound 0.0316 µM.
[14] abbreviates: second compound 10 µM, first compound 0.01 µM.
Where [15] appears, read: second compound 10 µM, first compound 0.0316 µM.
The mark [16] stands for this setting: second compound 0.1 µM, first compound 0.1 µM.
Where [17] appears, read: second compound 0.1 µM, first compound 0.316 µM.
Where [18] appears, read: second compound 0.1 µM, first compound 1 µM.
Setting [19] is: second compound 0.1 µM, first compound 3.16 µM.
The mark [20] stands for this setting: second compound 0.316 µM, first compound 0.1 µM.
Where [21] appears, read: second compound 0.316 µM, first compound 0.316 µM.
Where [22] appears, read: second compound 0.316 µM, first compound 1 µM.
Setting [23] is: second compound 0.316 µM, first compound 3.16 µM.
The mark [24] stands for this setting: second compound 1 µM, first compound 0.1 µM.
Setting [25] is: second compound 1 µM, first compound 0.316 µM.
Setting [26] is: second compound 1 µM, first compound 1 µM.
Setting [27] is: second compound 1 µM, first compound 3.16 µM.
Where [28] appears, read: second compound 3.16 µM, first compound 0.1 µM.
[29] abbreviates: second compound 3.16 µM, first compound 0.316 µM.
The mark [30] stands for this setting: second compound 3.16 µM, first compound 1 µM.
The mark [31] stands for this setting: second compound 3.16 µM, first compound 3.16 µM.
Where [32] appears, read: second compound 10 µM, first compound 0.1 µM.
The mark [33] stands for this setting: second compound 10 µM, first compound 0.316 µM.
The mark [34] stands for this setting: second compound 10 µM, first compound 1 µM.
Setting [35] is: second compound 10 µM, first compound 3.16 µM.
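Further: spheroids exposed to compounds for seven days before readout.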
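Wherever viability, T/C is given: 100% = DMSO vehicle control luminescence of the spheroids.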

Regarding `CC(=O)Nc1cccc(-n2c(=O)n(C3CC3)c(=O)c3c(Nc4ccc(I)cc4F)n(C)c(=O)c(C)c32)c1` + CC1OCC2(CCN(c3cnc(Sc4ccnc(N)c4Cl)c(N)n3)CC2)C1N, the pIC50 runs as follows: under setting [1], 8.38; under setting [2], 8.46; under setting [3], 8.66; under setting [4], 9.01; under setting [5], 9.40. Also, the viability, T/C runs as follows: (second compound 0.1 µM, first compound 0.0001 µM) 92.1%; (second compound 0.1 µM, first compound 0.000316 µM) 100%; (second compound 0.1 µM, first compound 0.001 µM) 85.7%; (second compound 0.1 µM, first compound 0.00316 µM) 63%; under setting [6], 10.8%; under setting [7], 2.77%. The viability, T/C by setting is: (second compound 0.316 µM, first compound 0.0001 µM) 98.7%; (second compound 0.316 µM, first compound 0.000316 µM) 82%; (second compound 0.316 µM, first compound 0.001 µM) 87.3%; (second compound 0.316 µM, first compound 0.00316 µM) 53.8%; under setting [8], 5.84%; under setting [9], 2.66%. Also, the viability, T/C is 80.7% (second compound 1 µM, first compound 0.0001 µM); 79% (second compound 1 µM, first compound 0.000316 µM); 75% (second compound 1 µM, first compound 0.001 µM); 38% (second compound 1 µM, first compound 0.00316 µM); 3.61% under setting [10]; 1.88% under setting [11]. The viability, T/C is 66.2% (second compound 3.16 µM, first compound 0.0001 µM); 74.4% (second compound 3.16 µM, first compound 0.000316 µM); 49.4% (second compound 3.16 µM, first compound 0.001 µM); 4.29% (second compound 3.16 µM, first compound 0.00316 µM); 2.24% under setting [12]; 1.57% under setting [13]. Moreover, the viability, T/C is 69.1% (second compound 10 µM, first compound 0.0001 µM); 59.7% (second compound 10 µM, first compound 0.000316 µM); 9.76% (second compound 10 µM, first compound 0.001 µM); 2.21% (second compound 10 µM, first compound 0.00316 µM); 1.43% under setting [14]; 1.76% under setting [15].

For `CCNC(=O)CC1N=C(c2ccc(Cl)cc2)c2cc(OC)ccc2-n2c(C)nnc21` (configuration not stated) + COc1cc2nc(C)nc(NC(C)c3cc(N)cc(C(F)(F)F)c3)c2cc1OC1CCOC1, the pIC50 under setting [1] was 5.46; the pIC50 under setting [2] was 5.60; the pIC50 under setting [3] was 5.71; the pIC50 under setting [4] is 6.18; the pIC50 under setting [5] is 6.15. Further, the viability, T/C was 115% under setting [7]; 123% under setting [16]; 97.6% under setting [17]; 84.8% under setting [18]; 45% under setting [19]; 43% (second compound 0.1 µM, first compound 10 µM). Besides, the viability, T/C is, setting by setting: under setting [9], 113%; under setting [20], 122%; under setting [21], 109%; under setting [22], 65.8%; under setting [23], 45.5%; (second compound 0.316 µM, first compound 10 µM) 45.5%. The viability, T/C runs as follows: under setting [11], 103%; under setting [24], 111%; under setting [25], 98.6%; under setting [26], 65.9%; under setting [27], 39.2%; (second compound 1 µM, first compound 10 µM) 17.6%. For the same compound, the viability, T/C was 73% under setting [13]; 107% under setting [28]; 76% under setting [29]; 36.2% under setting [30]; 22.4% under setting [31]; 26.4% (second compound 3.16 µM, first compound 10 µM). In addition, the viability, T/C under setting [15] is 79.9%; the viability, T/C under setting [32] is 81.6%; the viability, T/C under setting [33] is 74.8%; the viability, T/C under setting [34] was 39.2%; the viability, T/C under setting [35] is 22.9%; the viability, T/C (second compound 10 µM, first compound 10 µM) was 15.7%.

Turning to `CCNC(=O)CC1N=C(c2ccc(Cl)cc2)c2cc(OC)ccc2-n2c(C)nnc21` (configuration not stated), the viability, T/C runs as follows: (compound 0.0316 µM) 110% [middle of 5 runs]; (compound 0.1 µM) 100% [middle of 5 runs]; (compound 0.316 µM) 90.8% [middle of 5 runs]; (compound 1 µM) 88.9% [middle of 5 runs]. Also, the pIC50 (curve of compound) was < 5.00 and 5.30.

With `Cn1ncnc1[C@H]1c2n[nH]c(=O)c3cc(F)cc(c23)N[C@@H]1c1ccc(F)cc1`, the viability, T/C runs as follows: (compound 0.000316 µM) 102% [middle of 5 runs]; (compound 0.001 µM) 101% [middle of 5 runs]; (compound 0.00316 µM) 99.2% [middle of 5 runs]; (compound 0.01 µM) 98.7% [middle of 5 runs]; (compound 0.0316 µM) 101% [middle of 5 runs]; (compound 0.1 µM) 97.6% [middle of 5 runs]. The pIC50 (curve of compound) is under 7.00.

With `CC(=O)OC12COC1CC(O)C1(C)C(=O)C(O)C3=C(C)C(OC(=O)C(O)C(NC(=O)OC(C)(C)C)c4ccccc4)CC(O)(C(OC(=O)c4ccccc4)C21)C3(C)C` (configuration not stated) + C=CC(=O)N1CCN(c2nc(=O)n(-c3c(C)ccnc3C(C)C)c3nc(-c4c(O)cccc4F)c(F)cc23)C(C)C1, the pIC50 is, setting by setting: under setting [1], 6.59; under setting [2], 6.61; under setting [3], 6.61; under setting [4], 6.60; under setting [5], 6.68. Also, the viability, T/C is, setting by setting: under setting [6], 104%; under setting [7], 94.6%; under setting [16], 74.4%; under setting [17], 44.6%; under setting [18], 30.5%; under setting [19], 26.7%. Moreover, the viability, T/C under setting [8] was 90.9%; the viability, T/C under setting [9] is 98%; the viability, T/C under setting [20] is 70.8%; the viability, T/C under setting [21] is 44.9%; the viability, T/C under setting [22] is 29.8%; the viability, T/C under setting [23] is 27.4%. The viability, T/C runs as follows: under setting [10], 88.1%; under setting [11], 84.5%; under setting [24], 68.2%; under setting [25], 45%; under setting [26], 30%; under setting [27], 26.5%. Further, the viability, T/C reads like this: under setting [12], 105%; under setting [13], 93.5%; under setting [28], 70.2%; under setting [29], 45.7%; under setting [30], 30.6%; under setting [31], 27.5%. The viability, T/C runs as follows: under setting [14], 93.5%; under setting [15], 87.1%; under setting [32], 70.9%; under setting [33], 38.1%; under setting [34], 26.1%; under setting [35], 24.1%.
